These results are taken from US6608111B1, “Method for treating or preventing prostatic conditions” (Southern Illinois University Office of Research, …, priority 1998, dated 2003).

In one test the test system is dialyzed LDL. In words: Oxidized LDL lag time assay (antioxidant capacity). Also on record: species or system human. The following applies: 3 μM Cu2SO4, drugs at 10^−4, 10^−5, 10^−6, and 10^−7 M. How it is done: Experiments were carried out on dialyzed LDL collected from four fasted persons. The LDL was used within 10 days of dialysis. The oxidizing agent was 3 μM […]; phosphate buffered saline was used to control pH, and all drugs were dissolved in ethanol; final concentrations of each drug in the assays were 10^−4, 10^−5, 10^−6, and 10^−7 M. The combined results are shown in FIG. 6.

In test [1] the test system is male and female Wistar rats. In words: Experiment 2: chronic treatment of male and female rats, 5-6 weeks. It is filed as in vivo, rat. The following applies: for Food intake: n = 5. How it is done:
Twenty-five male and 25 female Wistar rats, 7-8 weeks of age, were randomly assigned to groups of five animals, respectively, for treatment with vehicle only (V), estradiol (E), (±)-Z-BDDA, (+)-Z-BDDA, or (−)-Z-BDDA. Each animal in group V received a daily 0.1 cc injection of a 10% ethanol-90% olive oil solution; the other treatments received their respective compound as a daily 0.1 cc injection, e.g., 2.5 μg of compound/g of body weight, in a 10% ethanol-90% olive oil solution. A temperature of 21° C. and an artificial 12-h light-dark cycle were maintained in the animal room. All animals were maintained on standard chow in powdered form, the males for five weeks and the females for six weeks, then sacrificed after an overnight fast under i.p. pentobarbital anesthesia (50 mg/kg). Animal weight and food intake were measured weekly during the study and subsequent FER values were determined. During sacrifice, blood was collected (via cardiac puncture) for glucose, luteinizing hormone, prolactin and testosterone measurements. The amounts of luteinizing hormone, prolactin and testosterone were measured to help elucidate the target tissue of the respective compounds in male and female rats. Immediately following sacrifice the fat pads and reproductive organs were removed and weighed.
Experiments 1 and 2 employed a randomized design. All data were analyzed by one-way analysis of variance (ANOVA,)and post-hoc comparisons were made with Tukey pairwise comparisons test. Significance was confirmed at p≦0.05 (SYSTAT 7.0, SPSS INC., 1997), and all values are reported as means±standard error of the mean.

For a further test, the system named is male Sprague-Dawley rats. In words: Example 4: effects on prostate and testis of male rats, 6 weeks. The following applies: for Prostate Weight as % Body Weight / Seminal Vesicle Weight as % Body Weight / Testis Weight as % Body Weight / Body Weight (g): 0.1 ug/g of body weight once a day, mean ± SEM; for Body Weight (g): n = 10. It is filed as in vivo, rat. Here is the method: Sixty male Sprague-Dawley rats, 7-8 weeks of age, were randomly assigned to groups of ten animals. Each group was randomly assigned to one of six treatments: Vehicle control (C), Estradiol-17β(E), (−)-Z-BDDA, (+)-Z-BDDA, (−)-HAA, and (+)-HAA. The compounds were all administered at a dose of 0.1 μg/g of body weight in 0.1 cc once a day for 6 weeks. The estrogenic compounds were dissolved in 10% ethanol and 90% olive oil vehicle. A temperature of 21° C. and an artificial 12 h light-dark cycle were maintained in the animal room. All animals were maintained on standard chow in powdered form for six weeks, and then sacrificed after an overnight fast under i.p. pentobarbitol anesthesia (50 mg/kg). Animal weight was measured weekly during the study. During sacrifice, blood was collected via cardiac puncture. Immediately following sacrifice, the fat pads, livers, pituitaries, testes, seminal vesicles, and prostate were removed and weighed, and snap frozen in liquid nitrogen. Prostates and one testis from 2-3 animals in each treatment group were fixed in 10% formalin for histological examination. These tissues were fixed overnight, blocked in paraffin, sectioned at 4 μm, stained with Hematoxylin and Eodsin, cover slipped, and examined microscopically. Quantitative results were subjected to an analysis of variance and means separated by a Tukey's Test (SYSTAT, Chicago, Ill.).

Test [2] deals with primary porcine granulosa cells. In words: In situ apoptosis assay in primary porcine granulosa cells. The following applies: 24 hr treatment, 0.1, 1 and 10 μM combined, serum-free MEM; controls 63.4% / 68.4%. It counts as cell-based. Here is the method: Porcine ovaries were obtained from local packing plants and transported to the laboratory on ice-cold Hank's balanced salt solution (HBSS). Each of the follicles was aspirated with an insulin syringe, and the follicular fluid was centrifuged at 3000 rpm and 4° C. for 15 min. The supernatant was poured off and the cells were washed in 5 mls of cold HBSS and centrifuged for another 10 min. The cells were again resuspended in HBSS, and the number of viable cells counted under the microscope using a hematocytometer. Once the number of cells was determined, the cells were centrifuged again for 10 min. and resuspended in the appropriate volume of Eagle's minimum essential media (MEM) containing 10% fetal bovine serum (FBS) and antibiotic/antimycotics. The cells were plated at 250,000 per well in 8 chamber microscope slides (Nunc, Naperville, Ill.) which were pre-treated with poly-L-lysine for 10 min. The slides were incubated at 5% CO2/95% air at 37° C. Approximately 12 hours later, the medium was removed by vacuum and replaced with pre-warmed, serum-free MEM. Cells were then treated for 2-3 hrs with MEM only to wash out any estrogen effects from the serum (Winters et al. (1994) Biol. Reprod. 50 (Suppl. 1):113; Suttner et al. (1998) Biol. Reprod. 59 (Suppl.): (Accepted for publication). Following serum-free MEM treatment, cells were treated for 24 hr with (+) or (−) enantiomers of Z-BDDA or estradiol at 0. 1, 1, and 10 μM, or EtOH vehicle control in serum-free MEM. Cells were subsequently processed using an in situ apoptosis assay kit (Apotag-Plus In Situ Apoptosis Kit-Peroxidase, Edition 1.1., Oncor, Gaithersburg, Md., 1995) to study ovarian apoptosis (Suttner et al., 1998). The slides were washed in two changes of PBS for 5 min each, and then quenched in 2% hydrogen peroxide in methanol for 5 min. at room temperature. After pre-treatment with an equilibration buffer, 13 ul of Terminal deoxynucleotidyl Transferase (TdT) diluted with reaction buffer and distilled water were added, and the slides were incubated for 1 h at 37° C. in a humidified chamber. After this 1 h period, the slides were put in pre-warmed stop wash buffer in the incubator for 30 min to stop the reaction. Next, the slides were washed in three changes of PBS for 5 min. each, and the anti-digoxigenin peroxidase was placed on the slides for 30 min. in a humidified chamber at room temperature. […] The degree of apoptosis for the calorimetric apoptosis assay was quantified microscopically using an image analysis system (Optimas 5.23, Optimas Users Guide, 5th Edition, Redmond, Wash.). Ten measurements (captured images) were taken for each concentration based on a pre-determined grid. […] Percentage area of each color was then quantitated using the image analysis system. […]

The test system of another test is mice. The following applies: cited from earlier work.
In test [3] the test system is rats, cats, chicks, and guinea pigs. The following applies: animals including rats; cited from earlier work.
Test [4] deals with MCF-7 human mammary cancer cell line. The following applies: human MCF-7 cells in culture; cited from earlier work.
[5] abbreviates: female rats, 2.5 ug/g of body weight daily, six weeks, mean ± SEM.
Where [6] appears, read: male rats, 2.5 ug/g of body weight daily, five weeks, mean ± SEM.

Regarding `CC[C@@H]1c2ccc3cc(O)ccc3c2CC[C@]1(C)C(=O)O` [(−)-Z-BDDA, (−)-Z-bisdehydrodoisynolic acid], the “antioxidant activity (shift in lag time of LDL oxidation)” value with dialyzed LDL is recorded as “significant antioxidant activity”. Besides, in test [1] (female rats (uterus), 2.5 ug/g of body weight daily, six weeks, mean ± SEM), the “Uterus/testis weight (g)” value is given as 1.44 ± 0.34^2,3,4 g. In test [1] (setting [5]), the “Blood glucose” value was 95.00 ± 8.33 mg/dL, the “FER (food efficiency ratio)” value is reported as 0.011 ± 0.005^1,2 and the “Food intake” value is reported as 675.2 ± 37.9 g. Moreover, the “weight gain (percent weight change)” value in test [1] (female rats, both experiments (FIGS. 2 and 3), 2.5 μg/g daily) is “repress weight gain slightly more than did (+)-Z-BDDA and E2”. Also, the “Uterus/testis weight (g)” value in test [1] (male rats (testis), 2.5 ug/g of body weight daily, five weeks, mean ± SEM) was 0.57 ± 0.04^1 g. In addition, in test [1] (male rats, 2.5 μg/g daily, compared to the vehicle), the testosterone entry is listed as “less pronounced”. Besides, in test [1] (setting [6]), the “Blood glucose (mg/dl)” value is on record as 88.00 ± 2.00^1 mg/dl, the “FER (food efficiency ratio)” value is −0.01 ± 0.01^1, the “Prostate weight (g)” value was 0.03 ± 0.10^1 g and the “Food intake” value was found to be 650.0 ± 54.3 g. In the test with male Sprague-Dawley rats (0.1 μg/g daily, FIGS. 5a-f), the “testis histology: Leydig cells” value is recorded as “severely atrophied Leydig cells, the smallest of all the treatments” and the “testis histology: spermatogenesis” value is listed as “halted primarily at the secondary spermatocyte phase”. Moreover, in the test with male Sprague-Dawley rats, the “Prostate Weight as % Body Weight” value is given as 0.08 ± 0.00^1 % Body Weight, the “Seminal Vesicle Weight as % Body Weight” value is given as 0.06 ± 0.02^4 % Body Weight, the “Testis Weight as % Body Weight” value is recorded as 0.31 ± 0.02^1,4 % Body Weight and the “Body Weight (g)” value is reported as 166.5 ± 4.5^1,2,4 g. Also, the “mean apoptosis (% area)” value in test [2] is 26.1%.

As to `O=c1c(-c2ccc(O)cc2)coc2cc(O)ccc12` [daidzein], the “antioxidant activity (shift in lag time of LDL oxidation)” value in the test on dialyzed LDL is reported as “Less antioxidant activity”.

As to `O=c1c(-c2ccc(O)cc2)coc2cc(O)cc(O)c12` [genistein], in the test with dialyzed LDL, the “antioxidant activity (shift in lag time of LDL oxidation)” value is listed as “Less antioxidant activity”.

Take `CC[C@H](c1ccc2cc(O)ccc2c1)C(C)(C)C(=O)O` [(+)-HAA]: the “effect on sulfate incorporation and weight gain” value with mice is on record as “significant depression of sulfate incorporation without the corresponding effects on weight gain”. In the test on male Sprague-Dawley rats (0.1 μg/g daily, FIGS. 5a-f), the “testis histology: spermatogenesis” value is reported as “halted at round spermatid, with a few spermatogenic cells showing elongation (acrosome phase)”. Further, in the test on male Sprague-Dawley rats, the “Prostate Weight as % Body Weight” value is listed as 0.08 ± 0.01^1 % Body Weight, the “Seminal Vesicle Weight as % Body Weight” value amounted to 0.10 ± 0.04 % Body Weight, the “Testis Weight as % Body Weight” value is on record as 0.38 ± 0.02^1,4 % Body Weight and the “Body Weight (g)” value is recorded as 196.2 ± 5.2^1,4,5 g.

Turning to `CC[C@H](c1ccc2cc(OC)ccc2c1)C(C)(C)C(=O)O` [compound 3], the “estrogenic activity (estrogenicity) in animals” value in test [3] was “one-fifth the estrogenicity of 2”.

With `CC[C@@H](c1ccc2cc(O)ccc2c1)C(C)(C)C(=O)O` [(−)-HAA], in test [4], the “MCF-7 cell proliferation (estrogenicity)” value is on record as “highly effective”. The “activity in inhibition of weight gain and sulfate incorporation, relative to compound 2” value with mice was 100 fold. The “prostate histology (alveoli)” value in the test with male Sprague-Dawley rats (0.1 μg/g daily, FIGS. 4a-f) is “largest degree of atrophy”. For the same molecule, the “testis histology: spermatogenesis” value in the test on male Sprague-Dawley rats (0.1 μg/g daily, FIGS. 5a-f) is reported as “halted at round spermatid, with a few reaching cap phase”. For the same molecule, in the test with male Sprague-Dawley rats, the “Prostate Weight as % Body Weight” value was 0.08 ± 0.01^1 % Body Weight, the “Seminal Vesicle Weight as % Body Weight” value was 0.04 ± 0.00^1,4 % Body Weight, the “Testis Weight as % Body Weight” value is given as 0.31 ± 0.01^1,4 % Body Weight and the “Body Weight (g)” value was 180.9 ± 4.5^1,2,4 g.
